The source of these data is PMC13288994, “Identification and characterization of novel chikungunya virus polymerase inhibitors” (Journal of Virology, 2026).

Data set [1] relates to CHIKV-nLuc (181/25 strain). The experiment in a line: microbe, parasite or virus in culture. The following applies: Chikungunya virus, 384-well format, read 20 h after infection, read-out: Normalized percent inhibition in primary screen. The class given is cell-based, Chikungunya virus.
The subject of data set [2] is VEEV-TC83-nLuc. The experiment in a line: microbe, parasite or virus in culture. The following applies: Venezuelan equine encephalitis virus, Vero C1008, read-out: Antiviral potency (EC50 [µM]) VEEV. The class given is cell-based.
In data set [3] the test system is SINV-GLuc. Briefly: microbe, parasite or virus in culture. The class given is cell-based. The following applies: Sindbis virus, Vero C1008; VeroE6 cells; read-out: Antiviral potency (EC50 [µM]) SINV.
Data set [4] concerns HPIV3-nLuc. Briefly: microbe, parasite or virus in culture. The class given is cell-based. The following applies: Human respirovirus 3, Vero C1008; VeroE6 cells; read-out: Antiviral potency (EC50 [µM]) HPIV3.
Data set [5] deals with SARS-CoV-2-nLuc. Briefly: microbe, parasite or virus in culture. The class given is cell-based. The settings on record: Severe acute respiratory syndrome coronavirus 2; VeroE6-TMPRSS2 cells; read-out: Antiviral potency (EC50 [µM]) SARS-CoV-2.
Data set [6] concerns RSV A2-L19F. The experiment in a line: microbe, parasite or virus in culture. The class given is cell-based. The settings on record: human respiratory syncytial virus; Hep-2 cells; read-out: Antiviral potency (EC50 [µM]) RSV.
Data set [7] relates to VSV-nLuc. Briefly: microbe, parasite or virus in culture. The class given is cell-based. The settings on record: Vesicular stomatitis virus, Vero C1008, read-out: Antiviral potency (EC50 [µM]) VSV.
Data set [8] in a line: in vitro. The settings on record: African green monkey.
Data set [9] is described as follows: in vitro. The following applies: human.
Data set [10] concerns CHIKV replicon. Briefly: microbe, parasite or virus in culture. The settings on record: Chikungunya virus, U2OS, read-out: Antiviral potency (EC50 [µM]) CHKV replicon. (In general: In antiviral work, replicon cells carry a viral genome segment that copies itself.)

Molecules are shown by their SMILES.

In the case of `CCNc1nc(C)cc(N2CCN(C(=O)c3cc(Cl)ccc3OC)CC2)n1` [GAP-1350926], the inhibition at 5 µM in [1] was 82.1%.
On to `CCNc1cc(C)nc(N2CCN(C(=O)c3cccc4ccccc34)CC2)n1` [GAP-1066658], for which the inhibition at 5 µM in data set [1] turned out to be 95.4%. The EC50 in [2] was 75.8 µM; in [3], greater than 100 µM; in data set [4], roughly 100 µM; in [5] it was roughly 100 µM; in [6] it was greater than 100 µM; in [7], 60.9 µM. Moreover, the EC50 in [10] was found to be 0.61 µM. Further, the CC50 was 88.5 µM in data set [8] and 61.5 µM in [9].
For the compound `CCNc1nc(C)cc(N2CCN(C(=O)c3ccc(F)cc3Cl)CC2)n1` [GAP-1358964], the inhibition at 5 µM in data set [1] was 91.6%.
Regarding `Cn1nc(CN(C(=O)c2ccc(F)cc2)c2ccccc2)c2c1CCN(S(=O)(=O)Cc1ccccc1F)C2` [GAP-1081237], in data set [1], the inhibition at 5 µM worked out at 80.2%. Further, the EC50 is 10 µM in [2]; 65.7 µM in data set [3]; 64.9 µM in [4]; greater than 100 µM in data set [5]; greater than 10 µM in data set [6]; 65.2 µM in [7]. The EC50 in [10] was found to be 12.4 µM. Further, the CC50 in data set [8] and in [9] was greater than 100 µM each time.
Consider `CC(C)(C)c1ccc(C(=O)On2c(-c3ccccc3F)nc3ccccc3c2=O)cc1` [GAP-1000864], for which the inhibition at 5 µM in [1] is 91%. Further, the EC50 in data set [3] is greater than 20 µM; in data set [4], greater than 20 µM; in data set [5], greater than 20 µM; in data set [6], greater than 10 µM; in data set [7], greater than 20 µM. The CC50 in data set [8] and in [9] was greater than 20 µM throughout.
Consider `O=C(CSc1c2c(nc3cc(Cl)ccc13)CCCC2)Nc1ccc2c(c1)OCCO2` [GAP-1022901], for which the inhibition at 5 µM in [1] is 82.1%. The EC50 in data set [3] is greater than 20 µM; in data set [4] it was greater than 20 µM; in data set [5] it was greater than 20 µM; in data set [6] it was greater than 10 µM; in [7], greater than 20 µM. The CC50 in data set [8] and in data set [9] was greater than 20 µM each time.

By inhibition is commonly meant the drop in the measured response relative to a control, in per cent. What is called EC50 is the concentration at which the effect is half-maximal.
